In patent publication US12611393B2, “Treatment of pain by targeting NR4A1” (UNIVERSITY OF CINCINNATI, priority 2019, dated 2026):

Assays:
[1] = tested on: mice after plantar incision (postoperative pain); assay: Plantar incision model of postoperative pain (von Frey filaments, Hargreaves test); assay type: in vivo, mouse; details: vs vehicle; for resolution of postoperative pain (mechanical and thermal hypersensitivity): von Frey filaments and Hargreaves test
Method: (§1) To investigate the underlying mechanisms of postoperative pain, we adopted a mouse model that is characterized by increased pain sensitivity and macrophage infiltration after a surgical incision made in the plantar aspect of the hind paw. Pain sensitivity and macrophage infiltration were evaluated in NA4A1 knockout (KO) mice. Expression and function of NR4A1 were also evaluated in neuronal and skin tissues, as well as in cultured macrophages.
We used a well-characterized animal model of postoperative pain consisting in plantar incision (FIG. 1). Specifically, FIGS. 1A-1C show an animal model of post-operative pain. FIG. 1A illustrates the experimental design depicting the plantar incision and timeline for the behavioral tests. FIG. 1B is a graph showing how, after plantar incision, mice develop mechanical hypersensitivity (assessed by von Frey filaments) and FIG. 1C is a graph showing thermal hypersensitivity (assessed by Hargreaves test). […]
Cutaneous application of an NA4A1 agonist accelerates the resolution of post-operative pain. […] FIG. 4B is a graph showing mechanical hypersensitivity as assessed by von Frey filaments before injection of the drug (prevention). FIG. 4C is a graph showing mechanical hypersensitivity as assessed by von Frey filaments after drug injection (acute analgesia). FIG. 4D is a graph showing thermal hypersensitivity as assessed by Hargreaves test before injection of the drug (prevention). FIG. 4E is a graph showing thermal hypersensitivity as assessed by Hargreaves test after drug injection (acute analgesia). […]
FIG. 5B is a graph showing mechanical hypersensitivity as assessed by von Frey filaments before injection of the drug (prevention), and FIG. 5C is a graph showing mechanical hypersensitivity as assessed by von Frey filaments after drug injection (acute analgesia). FIG. 5D is a graph showing thermal hypersensitivity as assessed by Hargreaves test before injection of the drug (prevention). FIG. 5D is a graph showing thermal hypersensitivity as assessed by Hargreaves test after drug injection (acute analgesia). […]

[2] = tested on: NR4A1 knockout male mice after plantar incision; assay: Plantar incision model of postoperative pain in NR4A1 knockout mice (von Frey filaments, Hargreaves test); assay type: in vivo, mouse; details: local intraplantar injection, vs vehicle
Method: as §1
We used a well-characterized animal model of postoperative pain consisting in plantar incision (FIG. 1). Specifically, FIGS. 1A-1C show an animal model of post-operative pain. FIG. 1A illustrates the experimental design depicting the plantar incision and timeline for the behavioral tests. FIG. 1B is a graph showing how, after plantar incision, mice develop mechanical hypersensitivity (assessed by von Frey filaments) and FIG. 1C is a graph showing thermal hypersensitivity (assessed by Hargreaves test). These hypersensitivities are indicative of postoperative pain and resolve in 7 days. n=6 male mice per group, One-way ANOVA, *p<0.05 (Bonferroni).
FIG. 6A is a graph showing mechanical hypersensitivity as assessed by von Frey filaments, and FIG. 6B is a graph showing thermal hypersensitivity as assessed by Hargreaves test. […]

Peritoneal macrophages = assay: Expression of pro-inflammatory mediators in cultured peritoneal macrophages activated with LPS; assay type: cell-based, mouse; details: Cyto B 10 μg/ml, LPS 20 ng/ml
Method: Peritoneal macrophages were cultured and incubated with vehicle control, cytosporone B (Cyto B, 10 μg/ml) or/and the macrophage activator lipopolysaccharide (LPS, 20 ng/ml). n=4-8 cultures per group, One-way ANOVA, *p<0.05 (Vehicle vs. LPS, Bonferroni), #p<0.05 (LPS VS. LPS+Cyto B, Bonferroni).

[3] = tested on: mice with paclitaxel-induced mechanical allodynia; assay: Paclitaxel-induced neuropathic pain (CINP) model, mechanical allodynia; assay type: in vivo, mouse; details: male WT mice, vs PBS
Text: FIGS. 9A and 9B are graphs showing that NR4A1 deficiency exacerbates chemotherapy-induced neuropathic pain and neuroinflammation in DRG tissue.
FIGS. 10A and 10B are graphs showing that NA4A1 activation by Cytosporone B (Csn-B) prevents and reverses chemotherapy induced neuropathic pain. […]

CCCCCCCC(=O)c1c(O)cc(O)cc1CC(=O)OCC [Cytosporone B]
resolution of postoperative pain (mechanical and thermal hypersensitivity) ([1]; female mice, local intraplantar injection): accelerates the resolution of postoperative pain | resolution of postoperative pain (mechanical and thermal hypersensitivity) ([1]; male mice, local intraplantar injection (i.pl.)): accelerates the resolution of postoperative pain | effect on postoperative pain (mechanical and thermal hypersensitivity) ([1]; male mice, systemic intraperitoneal injection): limited effects on postoperative pain | resolution of postoperative pain (mechanical and thermal hypersensitivity) [2]: fails to resolve postoperative pain | expression of pro-inflammatory mediators in macrophages (Peritoneal macrophages): decreases the expression of pro-inflammatory mediators | prevention of mechanical allodynia (chemotherapy induced neuropathic pain) ([3]; paclitaxel 2 mg/kg every other day x4, Csn-B intrathecal (i.t.) given with paclitaxel): significantly prevent | reversal of mechanical allodynia (chemotherapy induced neuropathic pain) ([3]; treatment 14 d after first paclitaxel delivery, different doses of Csn-B): reverse
